For this experiment, the system named is T1, laccase isozyme 3 (purified laccase from Ganoderma lucidum-CDBT1).
T1 construct: native secreted enzyme purified from culture medium (ammonium sulfate, DEAE Sepharose); 43 kDa by SDS-PAGE
Description: ABTS oxidation at […] nm, Lineweaver-Burk. It is filed as biochemical. The settings on record: 0.1 M sodium acetate pH 5.0, room temperature (~25°C); ABTS 0.01 to 10 mM; co-substrate O2.

For the compound `CCn1c(=NN=c2sc3cc(S(=O)(=O)O)ccc3n2CC)sc2cc(S(=O)(=O)O)ccc21` [ABTS, 2,2′-azino-bis(3-ethylbenzothiazoline-6-sulfonic acid)], the Km was 110 µM.

For the origin of these results see article PMC5086383, “Isolation and Physicochemical Characterization of Laccase from Ganoderma lucidum-CDBT1 Isolated from Its Native Habitat in Nepal” (BioMed Research International, 2016).
